Data from patent EP4104902B1, “COMPOUNDS AND M[…] SAME” (priority 2020, dated 2021).
Like-named read-outs stand apart in the source and are kept apart here.

Tested on: recombinant rabies virus 1088 strain expressing Gaussia Luciferase (GLuc) (1088/GLuc)
Assay type: cell-based

Compound | IC50 (read-out: Anti-rabies activity) [µM] | IC50 (read-out: IC50) [µM]
NC(=O)CN1C[C@@H]2C[C@H]3CN[C@]2(C(=O)NCc2cccc4ccccc24)[C@@H]1[C@@H]3Cc1ccccc1 (relative stereo) [IB-82] | 10 to 30 | –
CC(C)CNC(=O)C12CC3CN(CCC(=O)O)C(C3CN1)C2Cc1ccc(O)cc1 (stereo not shown) [IF-455] | 10 to 30 | –
CC(C)C[C@@H]1[C@@H]2CN[C@@]3(C(=O)NCCO)[C@@H](C2)CN(CC2CCCCC2)[C@@H]13 (relative stereo) [IB-646] | 10 to 30 | –
NC(=O)CCNC(=O)[C@]12NC[C@@H]3C[C@H]1CN(Cc1ccc(F)cc1)[C@H]2[C@@H]3Cc1cccc2ccccc12 (relative stereo) [IB-525] | 10 to 30 | –
CC(C)CC1C2C3CNC1(C(=O)NCc1ccccc1)CC3CN2Cc1ccccc1 (stereo not shown) [IF-7] | 5 to 10 | 8.5
CC(C)CC[C@@H]1[C@@H]2[C@@H]3CN[C@@]1(C(=O)NCC(C)C)C[C@@H]3CN2CC(C)C (relative stereo) [IF-412] | < 5 | –
CC(C)CNC(=O)[C@@]12C[C@@H]3CN(CC(C)C)[C@@H]([C@@H]3CN1)[C@H]2CCc1ccccc1 (relative stereo) [IF-679] | < 5 | –
CC(C)CCNC(=O)[C@@]12C[C@@H]3CN(CC4CCCCC4)[C@@H]([C@@H]3CN1)[C@H]2CC(C)C (relative stereo) [IF-659] | 10 to 30 | –
CC(C)CNC(=O)[C@]12NC[C@@H]3C[C@H]1CN(CCC(=O)O)[C@H]2[C@@H]3CO (relative stereo) [IB-431] | 10 to 30 | –
CC(C)CC1C2CNC3(C(=O)NCc4ccc(O)cc4)C(C2)CN(Cc2ccc(N(C)C)cc2)C13 (stereo not shown) [IB-892] | 10 to 30 | –
CC(C)CCN1CC2CC3CNC2(C(=O)NCc2ccccc2)C1C3CCC(=O)O (stereo not shown) [IB-505] | 10 to 30 | –
CC(C)CC[C@@H]1[C@@H]2[C@@H]3CN[C@@]1(C(=O)NCCC(N)=O)C[C@@H]3CN2Cc1cccc2ccccc12 (relative stereo) [IF-384] | 10 to 30 | –
Cc1ccc(CN2CC3CC4CN(C(N)=O)C3(C(=O)NCc3ccccc3)C2C4CC(C)C)cc1 (stereo not shown) [IB-888] | 10 to 30 | –
CC(C)C[C@@H]1[C@@H]2[C@@H]3CN[C@@]1(C(=O)NCCC(N)=O)C[C@@H]3CN2CCc1ccccc1 (relative stereo) [IF-699] | 10 to 30 | –
CC(C)CCNC(=O)C12NCC3CC1CN(Cc1ccc(O)cc1)C2C3CC(C)C (stereo not shown) [IB-739] | 10 to 30 | –
CC(C)CCN1C[C@@H]2C[C@H]3CN[C@]2(C(=O)NCCC(=O)O)[C@@H]1[C@@H]3CC(C)C (relative stereo) [IB-611] | 10 to 30 | –
CC(C)C[C@@H]1[C@@H]2[C@@H]3CN[C@@]1(C(=O)NCCc1ccccc1)C[C@@H]3CN2Cc1ccccc1 (relative stereo) [IF-721] | < 5 | –
CC(C)CCC1C2CNC3(C(=O)NCc4ccccc4)C(C2)CN(CC(C)C)C13 (stereo not shown) [IB-875] | 10 to 30 | –
CC(C)CN1CC2CC3(C(=O)NCc4ccc(F)cc4)NCC2C1C3Cc1ccccc1 (stereo not shown) [IF-815] | < 5 | –
Cc1cccc(C[C@@H]2[C@@H]3CN[C@@]4(C(=O)NCc5ccccc5)[C@@H](C3)CN(CC(C)C)[C@@H]24)c1 (relative stereo) [IB-13] | 10 to 30 | 14.3
CC(C)CCN1C[C@H]2C[C@]3(C(=O)NCc4ccccc4)NC[C@H]2[C@H]1[C@H]3CC(C)C (relative stereo) [IF-733] | < 5 | –

Compound | IC50 (read-out: Anti-rabies activity) [µM] | IC50 (read-out: IC50) [µM]
CC(C)C[C@@H]1[C@@H]2CN[C@@]3(C(=O)NCCCNC(=N)N)[C@@H](C2)CN(Cc2cccc4ccccc24)[C@@H]13 (relative stereo) [IB-350] | 10 to 30 | –
N=C(N)NCCCN1C[C@@H]2C[C@H]3CN[C@]2(C(=O)NCc2ccc(F)cc2)[C@@H]1[C@@H]3Cc1ccccc1 (relative stereo) [IB-182] | 10 to 30 | –
CC(C)CC1C2CNC3(C(=O)NCc4ccc(F)cc4)C(C2)CN(Cc2ccc(O)cc2)C13 (stereo not shown) [IB-499] | < 5 | –
CC(C)CCN1C[C@H]2C[C@]3(C(=O)NCC(C)C)NC[C@H]2[C@H]1[C@H]3Cc1cccc2ccccc12 (relative stereo) [IF-734] | < 5 | –
O=C(NCc1cccc2ccccc12)C12NCC3CC1CN(Cc1cccc4ccccc14)C2C3CCc1ccccc1 (stereo not shown) [IB-804] | < 5 | –
CC(C)C[C@@H]1[C@@H]2CN[C@@]3(C(=O)NCc4cccc5ccccc45)[C@@H](C2)CN(Cc2ccc(O)cc2)[C@@H]13 (relative stereo) [IB-541] | < 5 | –
CC(C)CC[C@@H]1[C@@H]2CN[C@@]3(C(=O)NCC(C)C)[C@@H](C2)CN(CCO)[C@@H]13 (relative stereo) [IB-372] | 10 to 30 | –
CC(C)CN1C[C@H]2C[C@]3(C(=O)NCc4ccccc4)NC[C@H]2[C@H]1[C@H]3CCc1ccccc1 (relative stereo) [IF-11] | 10 to 30 | 17.5
CC(C)C[C@@H]1[C@@H]2CN[C@@]3(C(=O)NC(C)C)[C@@H](C2)CN(CCCNC(=N)N)[C@@H]13 (relative stereo) [IB-176] | 10 to 30 | –
CC(C)CN1C[C@H]2C[C@]3(C(=O)NCc4cccc5ccccc45)NC[C@H]2[C@H]1[C@H]3Cc1cccc2ccccc12 (relative stereo) [IF-778] | < 5 | –
CC(C)CC[C@@H]1[C@@H]2[C@@H]3CN[C@@]1(C(=O)NCc1ccc(O)cc1)C[C@@H]3CN2Cc1ccccc1 (relative stereo) [IF-493] | < 5 | –
CC(C)CCN1C[C@@H]2C[C@H]3CN[C@]2(C(=O)NCCO)[C@@H]1[C@@H]3CCc1ccccc1 (relative stereo) [IB-658] | 10 to 30 | –
NC(=O)CN1C[C@H]2C[C@]3(C(=O)NCc4cccc5ccccc45)NC[C@H]2[C@H]1[C@H]3CCc1ccccc1 (relative stereo) [IF-85] | 10 to 30 | –
COc1ccc(CN2CC3CC4C=NC3(C(=O)NCc3ccccc3)C2C4CC(C)C)cc1 (stereo not shown) [IIB-85] | 5 to 10 | –
N=C(N)NCCC[C@@H]1[C@@H]2[C@@H]3CN[C@@]1(C(=O)NCCO)C[C@@H]3CN2Cc1cccc2ccccc12 (relative stereo) [IF-239] | 10 to 30 | –
CCCCCCNC(=O)C12NCC3CC1CN(CC(N)=O)C2C3CCc1ccccc1 (stereo not shown) [IB-109] | 10 to 30 | –
CC(C)C[C@@H]1[C@@H]2CN[C@@]3(C(=O)NCc4ccc(O)cc4)[C@@H](C2)CN(CCc2ccccc2)[C@@H]13 (relative stereo) [IB-449] | 10 to 30 | –
NC(=O)CCNC(=O)[C@]12NC[C@@H]3C[C@H]1CN(CC1CCCCC1)[C@H]2[C@@H]3Cc1ccccc1 (relative stereo) [IB-637] | < 5 | –
CN1CC2CC3C=NC2(C(=O)NCCc2cccc4ncccc24)C1C3Cc1ccccc1 (stereo not shown) [IIB-330] | < 5 | –
Cc1ccc(CN2CC3CC4CN(CC(C)C)C3(C(=O)NCc3ccccc3)C2C4CC(C)C)cc1 (stereo not shown) [IB-881] | < 5 | –
O=C(NCCc1ccccc1)C12CC3CN(CC4CCCCC4)C(C3CN1)C2Cc1ccc(O)cc1 (stereo not shown) [IF-439] | < 5 | –

Compound | IC50 (read-out: Anti-rabies activity) [µM] | IC50 (read-out: IC50) [µM]
O=C(O)CCC1C2CNC3(C(=O)NCc4cccc5ccccc45)C(C2)CN(CC2CCCCC2)C13 (stereo not shown) [IB-389] | 10 to 30 | –
CCCCCCNC(=O)[C@@]12C[C@@H]3CN(Cc4ccccc4)[C@@H]([C@@H]3CN1)[C@H]2Cc1ccc(O)cc1 (relative stereo) [IF-692] | < 5 | –
NC(=O)CN1C[C@@H]2C[C@H]3CN[C@]2(C(=O)NCc2cccc4ccccc24)[C@@H]1[C@@H]3Cc1ccc(O)cc1 (relative stereo) [IB-83] | 10 to 30 | –
CC(C)C[C@@H]1[C@@H]2CN[C@@]3(C(=O)NCc4ccc(O)cc4)[C@@H](C2)CN(Cc2ccccc2)[C@@H]13 (relative stereo) [IB-464] | < 5 | –
CC(C)CCC1C2CNC3(C(=O)NCc4cccc5ccccc45)C(C2)CN(CCC(=O)O)C13 (stereo not shown) [IB-398] | 10 to 30 | –
CC(C)C[C@@H]1[C@@H]2[C@@H]3CN[C@@]1(C(=O)NCCO)C[C@@H]3CN2Cc1cccc2ccccc12 (relative stereo) [IF-604] | 10 to 30 | –
CC(C)CC[C@@H]1[C@@H]2[C@@H]3CN[C@@]1(C(=O)NCCO)C[C@@H]3CN2Cc1ccc(F)cc1 (relative stereo) [IF-490] | 10 to 30 | –
NC(=O)CCNC(=O)C12NCC3CC1CN(CC1CCCCC1)C2C3CCc1ccccc1 (stereo not shown) [IB-710] | < 5 | –
CC(C)CC[C@@H]1[C@@H]2[C@@H]3CN[C@@]1(C(=O)NC(C)C)C[C@@H]3CN2Cc1ccc(O)cc1 (relative stereo) [IF-503] | < 5 | –
CCCCCCNC(=O)[C@@]12C[C@@H]3CN(CC4CCCCC4)[C@@H]([C@@H]3CN1)[C@H]2CCCNC(=N)N (relative stereo) [IF-260] | 10 to 30 | –
CC(C)CN1C[C@@H]2C[C@H]3CN[C@]2(C(=O)NCCc2ccccc2)[C@@H]1[C@@H]3Cc1ccccc1 (relative stereo) [IB-12] | 10 to 30 | 15.5
CC(C)CN1C[C@H]2C[C@]3(C(=O)NCc4ccccc4)NC[C@H]2[C@H]1[C@H]3Cc1cccc2ccccc12 (relative stereo) [IF-753] | 10 to 30 | –
CC(C)NC(=O)[C@@]12C[C@@H]3CN(Cc4cccc5ccccc45)[C@@H]([C@@H]3CN1)[C@H]2Cc1cccc2ccccc12 (relative stereo) [IF-596] | 10 to 30 | –
O=C(NCc1ccc(F)cc1)[C@]12NC[C@@H]3C[C@H]1CN(Cc1ccccc1)[C@H]2[C@@H]3CCc1ccccc1 (relative stereo) [IB-568] | 10 to 30 | –
CC(C)CCN1C[C@H]2C[C@]3(C(=O)NCCC(=O)O)NC[C@H]2[C@H]1[C@H]3Cc1cccc2ccccc12 (relative stereo) [IF-413] | 10 to 30 | –
CC(C)CC[C@@H]1[C@@H]2CN[C@@]3(C(=O)NCCC(N)=O)[C@@H](C2)CN(Cc2cccc4ccccc24)[C@@H]13 (relative stereo) [IB-349] | < 5 | –
O=C(NCCc1ccccc1)[C@@]12C[C@@H]3CN(Cc4ccc(F)cc4)[C@@H]([C@@H]3CN1)[C@H]2Cc1ccccc1 (relative stereo) [IF-586] | 10 to 30 | –
CC(C)CN1C[C@H]2C[C@]3(C(=O)NCCc4ccccc4)NC[C@H]2[C@H]1[C@H]3Cc1ccc(O)cc1 (relative stereo) [IF-567] | 10 to 30 | –
NC(=O)CCNC(=O)C12NCC3CC1CN(Cc1ccc(F)cc1)C2C3Cc1ccccc1 (stereo not shown) [IB-712] | < 5 | –
NC(=O)CN1C[C@@H]2C[C@H]3CN[C@]2(C(=O)NCc2ccc(F)cc2)[C@@H]1[C@@H]3Cc1cccc2ccccc12 (relative stereo) [IB-96] | 10 to 30 | –
O=C(NCc1ccc(F)cc1)[C@@]12C[C@@H]3CN(Cc4ccccc4)[C@@H]([C@@H]3CN1)[C@H]2Cc1ccccc1 (relative stereo) [IF-561] | < 5 | –
